Columns and labels:
[1] = Determination of log P values by HPLC on reversed-phase column (formic acid method); assay type: physicochemical; conditions: reversed-phase HPLC column (C 18), pH 3.4, HPLC, reversed-phase C 18, acidic range (pH 3.4), formic acid eluents, 55° C.; read-out: logP (HCOOH)
Experimental: 1) Description of Method for Determining the Log P Values (Formic Acid Method)
The log P values reported in the table were determined according to EEC-Directive 79/831 Annex V.A8 by HPLC (High Performance Liquid Chromatography) on a reversed-phase column (C 18). […]
Eluent A: acetonitrile+1 ml of formic acid/liter. Eluent B: water+0.9 ml of formic acid/liter.
Gradient: from 10% eluent A/90% eluent B to 95% eluent A/5% eluent B in 4.25 min
The calibration was effected with unbranched alkan-2-ones (with 3 to 16 carbon atoms), whose log P values are known (determination of the log P values on the basis of the retention times by linear interpolation between two successive alkanones). The lambda-max values were determined with reference to the UV spectra from 200 nm to 400 nm in the maxima of the chromatographic signals.

[2] = test system: green peach aphid (Myzus persicae); experiment: Myzus test; assay type: in vivo; conditions: application rate 500 g/ha, spray on Chinese cabbage leaf slices, read-out: efficacy (aphids killed)
Experimental: • Solvent: 78.0 parts by weight of acetone • 1.5 parts by weight of dimethylformamide • Emulsifier: 0.5 part by weight of alkylaryl polyglycol ether
To produce an appropriate active ingredient formulation, 1 part by weight of active ingredient is mixed with the amounts of solvent and emulsifier specified and the concentrate is diluted to the desired concentration with emulsifier-containing water.
Chinese cabbage leaf slices (Brassica pekinensis) infested by all stages of the green peach aphid (Myzus persicae) are sprayed with an active ingredient formulation of the desired concentration.
After the desired time, the efficacy in % is determined 100% means that all aphids have been killed; 0% means that no aphids have been killed.

SMILES | chromatographic logP [1] | pest or weed control at 500 g/ha [2]
Cn1nc(-c2cccnc2)cc1C(=O)NCc1ncccn1 [Compound 28] | 0.25 | ≥ 70%
Cn1nc(-c2cccnc2)cc1C(=O)NCc1ccon1 [Compound 29] | 0.56 | ≥ 70%
CN(CC(F)(F)F)C(=O)c1cc(-c2cccnc2)nn1C [Compound 30] | 1.09 | ≥ 70%
Cn1nc(-c2cccnc2)cc1C(=O)NCC(F)(F)F [Compound 31] | 1.04 | ≥ 70%
O=C(NCC(F)(F)F)c1nnc(-c2cccnc2)s1 [Compound 32] | 1.53 | ≥ 70%
O=C(NCC(F)(F)F)c1cc(-c2cccnc2)n[nH]1 [Compound 33] | 0.72 | ≥ 70%
Cc1nc(-c2cccnc2)sc1C(=O)NC1(C(F)(F)F)CC1 [Compound 34] | 1.84 | ≥ 70%
Cc1nc(-c2cccnc2)sc1C(=O)N(C)CC(C)(F)F [Compound 35] | 1.65 | ≥ 70%
Cc1nc(-c2cccnc2)sc1C(=O)NCC(C)(F)F [Compound 36] | 1.59 | ≥ 70%
Cc1nc(-c2cccnc2)sc1C(=O)NC(C)c1ncccn1 (stereo not drawn) [Compound 37] | 1.24 | ≥ 70%
Cc1nc(CNC(=O)c2sc(-c3cccnc3)nc2C)no1 [Compound 38] | 1.21 | ≥ 70%
Cc1nc(-c2cccnc2)sc1C(=O)NCC(F)(F)F [Compound 39] | 1.63 | ≥ 70%
Cc1nc(-c2cccnc2)sc1C(=O)NCc1ncccn1 [Compound 40] | 1.05 | ≥ 70%
Cc1nc(-c2cccnc2)sc1C(=O)N(C)CC(F)F [Compound 41] | 1.48 | ≥ 70%
Cc1nc(-c2cccnc2)sc1C(=O)N(C)CC(F)(F)F [Compound 42] | 1.81 | ≥ 70%
Cc1nc(-c2cccnc2)sc1C(=O)N(C)CC(F)(F)C(F)F [Compound 43] | 1.69 | ≥ 70%
CSCCNC(=O)c1sc(-c2cccnc2)nc1C [Compound 44] | 1.54 | ≥ 70%
CSCC(C)(C)N(C)C(=O)c1sc(-c2cccnc2)nc1C [Compound 45] | 2.21 | ≥ 70%
CN(C)C(=O)c1cnc(-c2cccnc2)s1 [Compound 46] | 0.91 | ≥ 70%
Cc1nc(-c2cccnc2)sc1C(=O)N(C)C(C)(C)C#N [Compound 47] | 1.41 | ≥ 70%
Cc1nc(-c2cccnc2)sc1C(=O)NC(C)C1=NOCCO1 (stereo not drawn) [Compound 49] | 1.27 | ≥ 70%
Cc1nc(-c2cccnc2)sc1C(=O)NCC1COCCO1 (stereo not drawn) [Compound 50] | 0.8 | ≥ 70%
COC(=O)C1(NC(=O)c2sc(-c3cccnc3)nc2C)CC1 [Compound 51] | 1.3 | ≥ 70%
Cc1nc(-c2cccnc2)sc1C(=O)NC(C)(C)C#N [Compound 52] | 1.48 | ≥ 70%
Cc1nc(-c2cccnc2)sc1C(=O)NCCF [Compound 53] | 1.11 | ≥ 70%
Cc1nc(-c2cccnc2)sc1C(=O)N[C@H]1C[C@@H]1F [Compound 54] | 1.16 | ≥ 70%
CCNC(=O)c1cnc(-c2cccnc2)s1 [Compound 55] | 1.03 | ≥ 70%

SMILES | chromatographic logP [1] | pest or weed control at 500 g/ha [2]
CSC[C@H](C)NC(=O)c1sc(-c2cccnc2)nc1C [Compound 56] | 1.68 | ≥ 70%
Cc1nc(-c2cccnc2)sc1C(=O)NCC(F)F [Compound 57] | 1.34 | ≥ 70%
Cc1nc(-c2cccnc2)sc1C(=O)N(CC(F)(F)F)C(=O)C1(F)CC1 [Compound 58] | 2.77 | ≥ 70%
CNC(=O)c1cnc(-c2cccnc2)s1 [Compound 59] | 0.62 | ≥ 70%
Cc1nc(-c2cccnc2)sc1C(=O)NCc1ccon1 [Compound 60] | 1.14 | ≥ 70%
CCN(C)C(=O)c1cnc(-c2cccnc2)s1 [Compound 61] | 1.23 | ≥ 70%
Cc1nc(-c2cccnc2)sc1C(=O)NCC1OCC(C)O1 (stereo not drawn) [Compound 62] | 1.34 | ≥ 70%
Cc1nc(-c2cccnc2)sc1C(=O)NC(C#N)C(C)C (stereo not drawn) [Compound 63] | 1.85 | ≥ 70%
COC(OC)C(C)NC(=O)c1sc(-c2cccnc2)nc1C (stereo not drawn) [Compound 65] | 1.45 | ≥ 70%
Cc1nc(-c2cccnc2)sc1C(=O)NC1(C#N)CC1 [Compound 66] | 1.2 | ≥ 70%
CCN(CC)C(=O)c1cnc(-c2cccnc2)s1 [Compound 67] | 1.46 | ≥ 70%
COCN(CC(F)(F)F)C(=O)c1sc(-c2cccnc2)nc1C [Compound 69] | 2.06 | ≥ 70%
COC1(NC(=O)c2cnc(-c3cccnc3)s2)CC1 [Compound 70] | 1.14 | ≥ 70%
CSC[C@H](C)N(C)C(=O)c1sc(-c2cccnc2)nc1C [Compound 71] | 1.71 | ≥ 70%
NC(=O)c1cnc(-c2cccnc2)s1 [Compound 72] | 0.29 | ≥ 70%
CSCC(C)(C)NC(=O)c1sc(-c2cccnc2)nc1C [Compound 73] | 2.05 | ≥ 70%
Cc1nccc(CNC(=O)c2cnc(-c3cccnc3)s2)n1 [Compound 74] | 0.94 | ≥ 70%
Cc1nc(-c2cccnc2)sc1C(=O)NCC(C)F (stereo not drawn) [Compound 75] | 1.34 | ≥ 70%
Cc1cnc(CNC(=O)c2sc(-c3cccnc3)nc2C)cn1 [Compound 77] | 1.15 | ≥ 70%
Cc1nc(-c2ccc[n+]([O-])c2)sc1C(=O)NCC(F)(F)F [Compound 78] | 1.31 | ≥ 70%
N#CCNC(=O)c1cnc(-c2cccnc2)s1 [Compound 79] | 0.88 | ≥ 70%
Cc1nc(-c2cccnc2)sc1C(=O)N(C)CC(C)F (stereo not drawn) [Compound 80] | 1.5 | ≥ 70%
O=C(NCc1ccncn1)c1cnc(-c2cccnc2)s1 [Compound 81] | 0.73 | ≥ 70%
Cc1nc(-c2cccnc2)sc1C(=O)NCC(F)(F)C(F)F [Compound 82] | 1.75 | ≥ 70%
Cc1nc(-c2cccnc2)sc1C(=O)N[C@@H]1C[C@@H]1F [Compound 83] | 1.16 | ≥ 70%
COC(=O)C(C)NC(=O)c1sc(-c2cccnc2)nc1C (stereo not drawn) [Compound 84] | 1.36 | ≥ 70%
Cc1nc(-c2cccnc2)sc1C(=O)N(C)CCF [Compound 85] | 1.23 | ≥ 70%

Reference: US9428487B2, “Heteroaromatic amides and thioamides as pesticides” (Bayer Intellectual Property GmbH, priority 2008, dated 2016)
